Laboratory results from PubChem BioAssay (NCI).
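1) Cells in 96-well plates. 2) Compound, 48 h, 5 concentrations. 3) Linear interpolation between surrounding doses. 4) Unreached endpoint = highest concentration. The concentration for 50% growth inhibition is given as GI50. TGI denotes the concentration required for complete inhibition of growth.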

Experiments:
Assay in all cases: NCI tumour cell line growth inhibition, 48 h
[1] = tested on: NCI-H23 lung
[2] = tested on: SK-MEL-5 melanoma
[3] = tested on: HCT-15 colon
[4] = tested on: IGROV1 ovarian
[5] = tested on: NCI-H460 lung
[6] = tested on: COLO 205 colon
[7] = tested on: UO-31 renal
[8] = tested on: SF-295 CNS
[9] = tested on: UACC-257 melanoma
[10] = tested on: SR leukemia

SMILES | TGI [1] [µM] | TGI [2] [µM] | TGI [3] [µM] | TGI [4] [µM] | TGI [5] [µM] | TGI [6] [µM] | TGI [7] [µM] | TGI [8] [µM] | TGI [9] [µM] | GI50 [1] [µM] | GI50 [2] [µM] | GI50 [3] [µM] | GI50 [6] [µM] | GI50 [7] [µM] | GI50 [8] [µM] | GI50 [10] [µM] | TGI [10] [µM] | GI50 [5] [µM] | GI50 [9] [µM] | GI50 [4] [µM]
COc1c(Br)cc(Br)c(OC)c1-c1[nH]c(Br)c(Br)c1Br | 13.8 | 20.5 | 20.1 | 20.6 | 32.8 | 28 | 8.73 | 17.4 | 19.2 |  |  |  |  |  |  |  |  |  |  | 
CCN(CC)CC(=O)N1CCc2c([nH]c3ccccc23)C1c1cccnc1 (stereo not drawn) | > 100 | > 100 | > 100 | > 100 | > 100 |  | > 100 | > 100 | > 100 |  |  |  |  |  |  |  |  |  |  | 
CC(=O)N[C@H](C(=O)N[C@@H](CCCNC(=N)N)C(=O)N[C@@H](CCCCN)C(=O)N[C@@H](CCCNC(=N)N)C(=O)N[C@]1(C)CCCCCC/C=C\CCC[C@@](C)(C(=O)N[C@@H](CCCNC(=N)N)C(=O)N[C@@H](CCC(=O)O)C(=O)N[C@@H](CC(C)C)C(=O)N[C@H](C(=O)N[C@@H](CCC(=O)O)C(N)=O)C(C)C)NC(=O)[C@H](CCC(N)=O)NC(=O)[C@H](CC(C)C)NC(=O)[C@H](CC(C)C)NC(=O)[C@H](CCCNC(=N)N)NC(=O)[C@H](CCCNC(=N)N)NC(=O)[C@H](CC(C)C)NC1=O)C(C)C | 30.1 | 2.62 | 47.3 |  |  | 4.54 | 47.1 | 30.1 |  | 2.77 | 1.1 | 3.02 | 1.3 | 11.1 | 4.4 |  |  |  |  | 
CCCCCCCCCCCCCCCCCCNC(=O)[C@H]1CSC(c2cccs2)N1 (stereo partly drawn) | 17.7 |  | > 50 |  | 1.69 | > 50 | > 50 | > 50 | 3.12 | 1.8 |  | 2.08 | > 50 | 10.3 | 5.58 | 0.94 | 2.62 | 0.754 | 1.25 | 
CC1=C(C(=O)Nc2ccccc2C)C(/C=C/c2ccccc2)C(C(=O)Nc2ccccc2C)=C(C)N1 | > 100 | > 100 | > 100 | > 100 | > 100 | > 100 | > 100 | > 100 | > 100 |  |  |  |  |  |  |  |  |  |  | 
Cc1cc(Nc2nc(SCc3ccc(C(=O)Nc4ccc(F)cc4N)cc3)nn3cccc23)n[nH]1 | 47.4 | 2.43 | > 100 | 62 | > 100 |  | 11 | 25.9 | 32.4 | 0.603 | 0.334 | 0.424 |  | 1.33 | 0.354 | 0.068 | 63.1 | 0.395 | 3.69 | 0.558
O=C(O)CCC(NC(=S)S)C(=O)O.[Na+].[Zn+2] (stereo not drawn) | > 50 | > 50 | > 50 | > 50 | > 50 | > 50 | > 50 |  | > 50 | > 50 | > 50 | > 50 | > 50 | > 50 |  |  |  | > 50 | > 50 | > 50
CC1(Cc2ccccc2)NC(=S)NC1=O (stereo not drawn) | > 100 |  |  |  | > 100 | > 100 | > 100 | > 100 | > 100 |  |  |  |  |  |  |  | > 100 |  |  | 
O=c1c(Cl)c(Cl)cnn1CCc1ccncc1 | 34.1 | 30.4 | 31.3 | 33.8 | 37.8 |  | 36.2 | 83 | 34.1 |  |  |  |  |  |  |  | 57.2 |  |  | 
CSc1c(C)c(C)nn1-c1ccccc1 | > 100 | > 100 | > 100 | > 100 | > 100 | > 100 | > 100 | > 100 | > 100 |  |  |  |  |  |  |  |  |  |  | 
Cn1cc(-c2csc(-c3cn(C)c4ccccc34)n2)c2cnccc21 | 3.44 | 3.07 | 3.2 | 3.24 | 3.49 |  | 3.16 | 3.07 | 3.5 | 1.64 | 1.69 | 1.51 |  | 1.47 | 1.63 |  |  | 1.79 | 1.94 | 1.61
Cc1ccc2nc3c(Cl)c(C)c(=O)cc-3sc2c1 | > 100 | > 100 | > 100 | > 100 | > 100 | > 100 | > 100 | > 100 | > 100 | 23.7 |  | 34.3 | > 100 |  |  |  |  | 50.3 | 78.4 | > 100
Cn1c2ccccc2c2c(=O)c3ccccc3[nH]c21 | > 100 | > 100 | > 100 | > 100 | > 100 | > 100 | > 100 | > 100 |  | 30.5 | 42.9 | 40.1 | 55.8 | 58.2 | 82.8 | > 100 | > 100 | 32.4 |  | 64.3
O=c1c2c3c(sc2n2c(-c4cc(-c5ccccc5)nn4-c4ccccc4)nnc2n1Cc1ccccc1)CCCC3 | > 100 | > 100 | > 100 |  | > 100 | > 100 | > 100 | > 100 | > 100 | > 100 | > 100 | > 100 | > 100 | > 100 | > 100 |  |  | > 100 | > 100 | 
O=C(c1ccc2ccccc2c1)c1c(C(F)(F)F)n([O-])c2ccc(Cl)cc2[n+]1=O |  | 2.65 | 2.94 | 1.06 | 3.34 | 2.73 | 2.55 | 3.08 | 3.13 |  | 1.36 | 1.55 | 1.34 | 1.29 | 1.66 | 0.438 | 1.34 | 1.75 | 1.68 | 0.334
COc1ccccc1-c1cc(=O)c2ccc(C)nc2[nH]1 | > 100 | > 100 | > 100 | > 100 | > 100 | > 100 | > 100 | > 100 | > 100 |  | 51.6 |  |  |  | > 100 |  |  | 98.7 |  | 
